From the METLIN SMRT retention time set (Domingo-Almenara et al. 2019)

Assay: gradient 5% acetonitrile 3 min, to 50% in 2 min, to 85% in 15 min, held 3 min, 100 µL/min
Details: column: Zorbax Extend-C18 2.1 x 50 mm; eluents: water / acetonitrile, 0.1% formic acid
Summary of the method: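 A Zorbax Extend-C18 column (2.1 × 50 mm, 1.8 μm) run at 100 μL/min with water and acetonitrile, both containing 0.1% formic acid, separated mixtures of ~100 pure standards. The HPLC was coupled to a quadrupole time-of-flight mass spectrometer operated in positive and negative ionization mode, with dead and dwell volumes of 40 μL and 900 μL. Each retention time was taken from a computationally picked adduct peak that was then manually inspected.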

Row | Compound | RP-LC retention time
1 | CCn1cc(-c2nc(C(=O)Nc3cc(F)ccc3C)cs2)c2cccnc21 | 899 s
2 | CC(C(=O)Nc1cccc(F)c1)C1CCN(C(=O)Nc2ccc(Cl)cc2)CC1 (stereo not drawn) | 951 s
3 | O=C(Cn1cnc2nc3c(cc2c1=O)CCCC3)NCCCN1CCc2ccccc2C1 | 864 s
4 | CCC(=O)NCCc1c[nH]c2ccc(Cl)cc12 | 743 s
5 | COCCN1C(=O)c2ccccc2C(C(=O)Nc2cccc(C)n2)C12CCCCC2 (stereo not drawn) | 828 s
6 | Cc1ccc(CN2CCN(C3CCN(S(=O)(=O)c4cccc(C)c4)CC3)C(=O)C2=O)cc1 | 873 s
7 | CN(C)CCNC(=O)C1CCN(c2nc3ccc(-c4cncnc4)nc3s2)CC1 | 574 s
8 | O=C1NCCCn2cc(S(=O)(=O)Nc3ccc4c(c3)OCCO4)cc21 | 622 s
9 | Cc1cc(C)n(Cc2nc(-c3ccc(NC(=O)Cc4ccccc4C)cc3)oc2C)n1 | 978 s
10 | O=C(COc1ccccc1)N1CC(n2cc(COCC3CC3)nn2)C1 | 717 s
11 | CCN(CCN(C)C)c1ccc(C(=O)O)cc1NS(=O)(=O)c1cccc(C)c1 | 620 s
12 | O=C(c1cccc(F)c1)N1CCN(c2cc(-c3cccs3)[nH]n2)CC1 | 774 s
13 | O=c1c(Br)c(-c2ccccc2)[nH]c2ccccc12 | 715 s
14 | CCn1c(=O)c(C)nc2cc(-c3noc(-c4ccc(Br)cc4)n3)ccc21 | 1270 s
15 | CC(C)NC(=O)C1Cc2cc(C(F)(F)F)ccc2N2CCN(c3ccccc3Cl)CC12 (stereo not drawn) | 1200 s
16 | COC(=O)c1cccc(NC(=O)C2CC(=O)N(c3ccc4c(c3)CCN4C(C)=O)C2)c1 (stereo not drawn) | 687 s
17 | Cc1noc2nc(CCC(=O)NCc3ccccn3)nc(N3CC(C)CC(C)C3)c12 (stereo not drawn) | 690 s
18 | Cc1c(C(=O)NC2CC2)cnn1-c1ccc(-c2nc(C(C)C)no2)cn1 | 849 s
19 | O=C(CCc1conc1-c1ccc(F)cc1)NCc1ccc2c(c1)OCO2 | 848 s
20 | O=C(CN1C(=O)CCS(=O)(=O)c2ccccc21)Nc1ccc(Cl)cc1 | 797 s
21 | O=S(=O)(Nc1cccn2ncnc12)c1ccc(Cl)cc1 | 770 s
22 | COC(=O)Nc1nc2ccc(C(=O)c3ccc(F)cc3)cc2[nH]1 | 864 s

Row | Compound | RP-LC retention time
23 | Cc1cc2c(cc1S(=O)(=O)N1CCCC1C(=O)NC1CCCC1)OC(C)C(=O)N2 (stereo not drawn) | 730 s
24 | COC(=O)c1nnn(CC(=O)NCc2ccc3c(c2)OCO3)c1C(=O)OC | 657 s
25 | O=C(Cc1ccccc1Cl)N1CCN(Cc2noc3ccccc23)CC1 | 739 s
26 | Clc1ccc(-c2nc3ccc(Cl)cn3c2Nc2ccc3c(c2)OCO3)cc1 | 926 s
27 | CC(C)c1noc(-c2cc(=O)n(CC(=O)Nc3ccc(Cl)cc3)c3ccccc23)n1 | 1060 s
28 | CCCCC(=O)Nc1ccc2nc(N3CCN(c4cccc(C)c4C)CC3)cc(C(=O)O)c2c1 | 776 s
29 | CC1CCCN(c2ccc(-c3noc(CN4CCN(c5ccccc5)CC4)n3)cn2)C1 (stereo not drawn) | 1010 s
30 | O=C(Cn1nc2c(cc1=O)CCCCC2)Nc1nc(-c2ccncc2)cs1 | 620 s
31 | Cc1ccc(C(=O)NC2CCN(c3cc(N4CCCC4)cnn3)C2)s1 (stereo not drawn) | 649 s
32 | COC[C@@H]1CN(Cc2ccc(Cl)c(F)c2)C[C@H]1c1nc(C)no1 | 645 s
33 | C=CCSc1n[nH]c(-c2cccs2)n1 | 792 s
34 | CCCCN(C)C(=O)c1ccc2c(c1)Sc1ncccc1C(=O)N2C(C)C | 804 s
35 | Cc1ccc(-c2nnc(-c3cccc(S(=O)(=O)NC(C)C)c3)o2)cc1 | 984 s
36 | Nc1cc(C2CCN(C(=O)c3ccc(Br)cc3)CC2)no1 | 716 s
37 | CC1CCN(C(=O)CSCC(=O)Nc2nc(-c3ccc4c(c3)OCO4)cs2)CC1 | 890 s
38 | O=C(Cn1nc2n(c1=O)CCCCC2)Nc1ccc(Cl)cc1 | 730 s
39 | O=C(NCc1cccs1)C1CCCN(c2nnc3ccc(Cl)cn23)C1 (stereo not drawn) | 650 s
40 | CCOc1ccc(C2Cn3nnc(-c4nc(-c5ccncc5)no4)c3CO2)cc1 (stereo not drawn) | 958 s
41 | CCOC(=O)CCNC(=O)N1CCC(CC2CC2)(NS(C)(=O)=O)CC1 | 672 s
42 | O=C(NCCc1ccccc1)N1CCCn2nc(-c3ccncc3)cc2C1 | 583 s
43 | Cc1cc(NC(=O)C2CCCN(S(=O)(=O)c3cc(-c4noc(C5CCCC5)n4)cs3)C2)no1 (stereo not drawn) | 1110 s
44 | CCC(C(=O)N1CCN(c2cc(C)n3c(C)nnc3n2)CC1)c1ccccc1 (stereo not drawn) | 650 s

Row | Compound | RP-LC retention time
45 | O=C(O)c1nnn(-c2cc(F)cc(F)c2)c1-c1ccccn1 | 680 s
46 | CCc1noc(NC(C)=O)c1-c1ccc(C)c(S(=O)(=O)NCCC(C)C)c1 | 856 s
47 | CCn1ccc(C(=O)N2CCC(c3noc(-c4cnccn4)n3)C2)n1 (stereo not drawn) | 634 s
48 | COc1ccc(Cl)cc1NC(=O)Cn1ccc2c(=O)n(C)c(=O)n(C)c21 | 722 s
49 | CCOC(=O)N1CCN(C(=O)CSc2ccc(-c3ccco3)nn2)CC1 | 661 s
50 | Cn1c(=O)n(C)c2cc(S(=O)(=O)c3ccc(F)cc3)c(NC(=O)c3cccc(F)c3)cc21 | 896 s
51 | CC(C(=O)NCc1ccccc1F)n1c(=O)c(C(F)(F)F)nc2ccccc21 (stereo not drawn) | 1020 s
52 | O=C(c1ccco1)N1CCN(S(=O)(=O)c2cccc(-c3nc(-c4ccccc4)no3)c2)CC1 | 1060 s
53 | COc1cc(OC)c(NC(=O)N2CCCC(C)(C(=O)NCc3ccc(C)cc3)C2)cc1Cl (stereo not drawn) | 971 s
54 | O=C(c1ccc(Br)o1)N1CCN(c2cc(-c3ccccc3)[nH]n2)CC1 | 796 s
55 | Cc1ccn2c(Nc3ccccc3C)c(-c3cccc(O)c3)nc2c1 | 673 s
56 | O=C(O)C1CCN(c2nc3ccc(-c4ccc(F)cc4)nc3s2)CC1 | 902 s
57 | Cc1ccc(Cl)cc1NS(=O)(=O)c1cc(-c2nc(C(C)(C)C)cs2)cs1 | 1330 s
58 | O=C(NCc1ccc(Cl)cc1)C(=O)NCC1CCCO1 (stereo not drawn) | 762 s
59 | CC1CCN(S(=O)(=O)c2ccc(-c3nnc(C(=O)NCc4cccs4)o3)cc2)CC1 | 910 s
60 | COCCNC(=O)CSc1cc(N2CCN(c3ccc(OC)cc3)CC2)ncn1 | 662 s
61 | CCCCN(Cc1ccco1)c1nc(-c2ccc(OC)cc2)nc2ccccc12 | 940 s
62 | COC(=O)c1ccc2c(=O)n(-c3ccc(C)c(C)c3)c(N3CCC(C)CC3)nc2c1 | 1440 s
63 | COc1ccc(C)cc1NC(=O)Cn1nc2nc(N3CCCC(C)C3)ccn2c1=O (stereo not drawn) | 841 s
64 | COc1ccc(C2(C(=O)Nc3ccc4c(c3)Sc3ncccc3C(=O)N4C)CC2)cc1 | 902 s
65 | CCn1c(=O)sc2cc(S(=O)(=O)N3CCC(C(=O)NCCc4ccccc4)CC3)ccc21 | 942 s
66 | COc1ccc(OC)c(-c2cn3ccn(-c4cccc(F)c4)c(=O)c3n2)c1 | 835 s

Row | Compound | RP-LC retention time
67 | CCc1ccc(S(=O)(=O)Nc2cc(C(=O)O)ccc2N2CCN(c3ccccn3)CC2)cc1 | 669 s
68 | Cc1ccc(OCC(=O)N(Cc2ccc(N(C)C)cc2)Cc2ccco2)cc1 | 795 s
69 | CCOc1ccc(S(=O)(=O)Nc2ccc(-c3cn4ccccc4n3)cc2)cc1 | 661 s
70 | O=S(=O)(c1ccccc1)N1CC(F)(F)C[C@H]1COc1cccnc1 | 690 s
71 | CC(Oc1ccccc1F)C(=O)NCCOc1ccc(-c2ccccn2)nn1 (stereo not drawn) | 612 s
72 | COc1ccc(OC)c(NS(=O)(=O)c2cc3c4c(c2)CCC(=O)N4CCC3)c1 | 804 s
73 | CCOc1ccc(C(=O)NC(C(=O)Nc2nc3ccccc3[nH]2)C(C)CC)cc1OCC (stereo not drawn) | 792 s
74 | CCn1c(C)c(C(C)=O)c2cc(OCC(O)CNC(C)c3ccccc3)ccc21 (stereo not drawn) | 590 s
75 | Cc1noc(-c2ccc(OC3CN(C(=O)C(C)Oc4ccccc4)C3)cc2)n1 (stereo not drawn) | 899 s
76 | O=C(c1cnn(-c2ccccc2)c1-n1cccc1)N1CCN(c2ccccn2)CC1 | 623 s
77 | O=C(Cn1c2ccccc2c2ncn(Cc3nc(C4CC4)no3)c(=O)c21)NCCC1=CCCCC1 | 940 s
78 | CCc1cccc(NS(=O)(=O)c2cc3n(c2)CCCN(C)C3=O)c1 | 728 s
79 | CC(C(=O)OC1CC2CCC(C1)N2C)c1ccc(Br)cc1 (stereo not drawn) | 785 s
80 | O=C(Cn1cccc1-c1nc(-c2ccc3c(c2)OCO3)no1)Nc1ccc2c(c1)CCC2 | 1140 s
81 | CCn1c(C(=O)N2CCOCC2)cc2c(-c3cccs3)nn(-c3ccccc3)c21 | 944 s
82 | CN1C(=O)[C@H]2CN(Cc3cccc(Cl)c3F)C[C@H]2C1=O | 649 s
83 | O=C(Nc1ccc(-n2cnc(C(=O)N3CCSCC3)c2)nc1)C1CC1 | 657 s
84 | O=C(c1ccc2c(c1)CCCN2S(=O)(=O)c1ccccc1)N1CCCCC1 | 939 s
85 | COc1cc(OC)c(Nc2cc(C)nc3nc(-c4ccc(C)cc4)nn23)cc1Cl | 1060 s
86 | O=C(NCCc1ccc(F)cc1)C(=O)Nc1cccc(N2CCCC2=O)c1 | 771 s
87 | CN(C)c1ccc(CNC(=O)C2CCN(Cc3cn(C)c4ccc(Cl)cc34)CC2)cc1 | 584 s
88 | CCc1nnc(-c2ccc(S(=O)(=O)N3CCN(CC(C)C)CC3)o2)o1 | 612 s
